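These data come from cells grown in 96-well plates and exposed to compound for 48 hours at five concentrations. GI50 = concentration required for 50% inhibition of growth.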 The source made the active and inactive calls. Rule as the data show it: active = GI50 up to about 1.1 µM and inactive = higher.
Tests used:
Experiment in all cases: inhibition of tumour cell growth, NCI panel, 48 h
[1] = test system: OVCAR-8
[2] = test system: NCI-H522
[3] = test system: SK-MEL-2
[4] = test system: OVCAR-4
[5] = test system: M14
[6] = test system: BT-549
[7] = test system: SK-MEL-5
[8] = test system: MOLT-4
[9] = test system: MDA-N
[10] = test system: NCI-H226
[11] = test system: NCI/ADR-RES
[12] = test system: ACHN
[13] = test system: HT-29
[14] = test system: RXF 393
[15] = test system: UACC-62
[16] = test system: EKVX
[17] = test system: SF-295
[18] = test system: HCT-15
[19] = test system: CAKI-1
[20] = test system: HCT-116
[21] = test system: LOX IMVI
[22] = test system: DU-145
[23] = test system: HOP-92
[24] = test system: NCI-H460
[25] = test system: SNB-19
[26] = test system: KM12
[27] = test system: MDA-MB-435
[28] = test system: SK-MEL-28
[29] = test system: MDA-MB-231
[30] = test system: Malme-3M
[31] = test system: SK-OV-3
[32] = test system: OVCAR-3
[33] = test system: K562
[34] = test system: SN12C
[35] = test system: A498
[36] = test system: A549
[37] = test system: HCC 2998
[38] = test system: UACC-257
[39] = test system: IGROV-1
[40] = test system: HL-60
[41] = test system: TK-10
[42] = test system: NCI-H23
[43] = test system: PC-3
[44] = test system: OVCAR-5
[45] = test system: Hs-578T
[46] = test system: SF-268
[47] = test system: U-251
[48] = test system: SW-620
[49] = test system: T47D
[50] = test system: CCRF-CEM
[51] = test system: SF-539
[52] = test system: UO-31
[53] = test system: 786-0
[54] = test system: COLO 205
[55] = test system: SR
[56] = test system: MCF7
[57] = test system: HOP-62
[58] = test system: RPMI-8226

`CCCNC(C#N)c1ccc(C(C#N)NCCC)cc1` (centres undefined) was tested, and the GI50 [1] was 29.9 µM (inactive), the GI50 [2] was > 100 µM (inactive) and the GI50 [3] was > 100 µM (inactive). The GI50 [4] was > 100 µM (inactive), the GI50 [5] was > 100 µM (inactive) and the GI50 [6] was > 100 µM (inactive). For the same compound, the GI50 [7] was > 100 µM (inactive), the GI50 [8] was 37.3 µM (inactive) and the GI50 [9] was 36.3 µM (inactive). For the same compound, the GI50 [10] was > 100 µM (inactive), the GI50 [11] was 50.2 µM (inactive) and the GI50 [12] was > 100 µM (inactive). The GI50 [13] was > 100 µM (inactive), the GI50 [14] was > 100 µM (inactive) and the GI50 [15] was > 100 µM (inactive). The GI50 [16] was > 100 µM (inactive), the GI50 [17] was > 100 µM (inactive) and the GI50 [18] was greater than 100 µM. The GI50 [19] was > 100 µM (inactive), the GI50 [20] was 40.3 µM (inactive) and the GI50 [21] was > 100 µM (inactive). For the same compound, the GI50 [22] was > 100 µM (inactive), the GI50 [23] was 45.4 µM (inactive) and the GI50 [24] was > 100 µM (inactive). For the same compound, the GI50 [25] was > 100 µM (inactive), the GI50 [26] was > 100 µM (inactive) and the GI50 [27] was 76.4 µM (inactive). For the same compound, the GI50 [28] was > 100 µM (inactive), the GI50 [29] was > 100 µM (inactive) and the GI50 [30] was > 100 µM (inactive). The GI50 [31] was > 100 µM (inactive), the GI50 [32] was > 100 µM (inactive) and the GI50 [33] was 37.8 µM (inactive). For the same compound, the GI50 [34] was > 100 µM (inactive), the GI50 [35] was > 100 µM (inactive) and the GI50 [36] was > 100 µM (inactive). The GI50 [37] was > 100 µM (inactive), the GI50 [38] was > 100 µM (inactive) and the GI50 [39] was > 100 µM (inactive). The GI50 [40] was 40.8 µM (inactive), the GI50 [41] was > 100 µM (inactive) and the GI50 [42] was > 100 µM (inactive). The GI50 [43] was > 100 µM (inactive), the GI50 [44] was > 100 µM (inactive) and the GI50 [45] was > 100 µM (inactive). The GI50 [46] was > 100 µM (inactive), the GI50 [47] was > 100 µM (inactive) and the GI50 [48] was > 100 µM (inactive). For the same compound, the GI50 [49] was > 100 µM (inactive), the GI50 [50] was 24.4 µM (inactive) and the GI50 [51] was > 100 µM (inactive). The GI50 [52] was > 100 µM (inactive), the GI50 [53] was > 100 µM (inactive) and the GI50 [54] was 81.3 µM (inactive).
`CC(=O)N1N=C(c2cc(C)ccc2O)CC1c1cccc(Cl)c1` (centres undefined) was tested, and the GI50 [1] was 27.4 µM (inactive), the GI50 [2] was 3.07 µM (inactive) and the GI50 [55] was 1.83 µM (inactive). For the same compound, the GI50 [3] was 10.3 µM (inactive), the GI50 [4] was 13.7 µM (inactive) and the GI50 [5] was 15.1 µM (inactive). The GI50 [6] was 33.3 µM (inactive), the GI50 [7] was 11.7 µM (inactive) and the GI50 [8] was 4.26 µM (inactive). For the same compound, the GI50 [9] was 2.12 µM (inactive), the GI50 [56] was 5.79 µM (inactive) and the GI50 [10] was 16.1 µM (inactive). For the same compound, the GI50 [11] was 6.03 µM (inactive), the GI50 [12] was 16.1 µM (inactive) and the GI50 [13] was 6.97 µM (inactive). For the same compound, the GI50 [14] was 11.3 µM (inactive), the GI50 [15] was 7.6 µM (inactive) and the GI50 [16] was 24.1 µM (inactive). For the same compound, the GI50 [17] was 10.9 µM (inactive), the GI50 [18] was 1.95 µM and the GI50 [19] was 27.3 µM (inactive). The GI50 [20] was 13.8 µM (inactive), the GI50 [21] was 12.5 µM (inactive) and the GI50 [22] was 51.9 µM (inactive). For the same compound, the GI50 [23] was 3.17 µM (inactive), the GI50 [24] was 8.85 µM (inactive) and the GI50 [25] was 6.08 µM (inactive). The GI50 [26] was 5.7 µM (inactive), the GI50 [27] was 1.6 µM (inactive) and the GI50 [29] was 17.5 µM (inactive). The GI50 [30] was 6.93 µM (inactive), the GI50 [31] was 9.1 µM (inactive) and the GI50 [32] was 32.1 µM (inactive). The GI50 [33] was 4.05 µM (inactive), the GI50 [34] was 17.5 µM (inactive) and the GI50 [36] was 11.8 µM (inactive). For the same compound, the GI50 [57] was 22.3 µM (inactive), the GI50 [38] was 14.2 µM (inactive) and the GI50 [39] was 2.6 µM (inactive). The GI50 [40] was 8.53 µM (inactive), the GI50 [41] was 17.4 µM (inactive) and the GI50 [42] was 13.5 µM (inactive). The GI50 [43] was 3.35 µM (inactive), the GI50 [44] was 30.1 µM (inactive) and the GI50 [45] was 12.9 µM (inactive). For the same compound, the GI50 [46] was 8.55 µM (inactive), the GI50 [47] was 13.8 µM (inactive) and the GI50 [48] was 7.74 µM (inactive). The GI50 [58] was 6.24 µM (inactive), the GI50 [49] was 23.1 µM (inactive) and the GI50 [50] was 13.4 µM (inactive). The GI50 [51] was 19.2 µM (inactive), the GI50 [52] was 17.4 µM (inactive) and the GI50 [53] was 21.7 µM (inactive). The GI50 [54] was 6.93 µM (inactive).
